Experimental findings from US5185338A, “Medicament for treating cerebral insufficiency diseases, novel 2-(1-piperazinyl)-4-phenylcycloalkanopyrimidine derivatives, and process for the production thereof” (Dainippon Pharmaceutical Co., Ltd., priority 1989, dated 1993) are described below.

Type in all cases: in vivo, mice (Std-ddY strain)
The test system of assay [1] is scopolamine-induced hypermotility. The experiment in a line: Antagonistic effect on scopolamine-induced hypermotility. The following applies: Mus musculus, po, orally, scopolamine hydrobromide 1 mg/kg i.p., complete antagonism to motility level of non-dosed animals=100%, read-out: Inhibitory ratio (% antagonism of scopolamine-induced hypermotility). The procedure: Antagonistic effect on scopolamine-induced hypermotility:
A test compound was orally administered to each mouse, and 90 minutes after the administration, each one test animal was placed within a test cage (25×35×30 cm). After 30 minutes, scopolamine hydrobromide (1 mg/kg) was intraperitoneally administered to the mice and then the motility was measured with Animex activity meter for 30 minutes. The effect of test compounds was expressed as % antagonism (complete antagonism to the motility level of non-dosed animals=100%).

Assay [2] deals with brain serotonin metabolite, 5-hydroxyindole-3-acetic acid (5-HIAA). Briefly: Increasing effect on concentration of brain serotonin metabolite (5-HIAA). The note with it: Mus musculus, 2 h, two hours after treatment, 5-HIAA level of non-dosed animals=100%. From the text: Increasing effect on concentration of brain serotonin metabolite:
A group of 5 male mice (Std-ddY strain, 25-30 g) was used for examining effect of the test compounds on concentration of a brain serotonin metabolite, 5-hydroxyindole-3-acetic acid (5-HIAA).
Mice were killed by decapitation two hours after the treatment with the test compounds. Brains were quickly taken out, homogenized in 1N formic acid-acetone solution, and centrifuged in a refrigerated ultracentrifuge. The supernatant was evaporated by blowing with N2 gas, and then, the residue was again dissolved in 0.01N acetic acid, and served for determining 5-HIAA concentration by high performance liquid chromatography with electrochemical detection. The effect of the test compounds on 5-HIAA concentration was shown as % of control (5-HIAA level of non-dosed animals=100%).

Assay [3] deals with scopolamine-induced deficit of spontaneous alternation behavior. The experiment in a line: Improving effect on scopolamine-induced deficit of spontaneous alternation behavior (T-maze). The note with it: scopolamine hydrobromide 1 mg/kg, non-dosed mice=100%. The source says:
Improving effect on scopolamine-induced deficit of spontaneous alternation behavior:
A group of 15-25 male mice (Std-ddY strain, 22-28 g) was used for evaluating effect of the test compounds on scopolamine-induced deficit of spontaneous alternation in a T-maze, which is a known animal model of memory impairment due to hypofunction of the cholinergic nervous system. The T-maze used consists of a stem and two arms which are 25 cm long, 5 cm wide and 10 cm high. The first 10 cm of the stem and last 10 cm of each arm are divided by sliding doors into start and goal boxes.
A test compound and scopolamine hydrobromide (1 mg/kg) were intraperitoneally administered to each mouse, and after 30 minutes a test of spontaneous alternation task in the T-maze was continuously repeated for 8 trials. Commonly, naive mice alternate each (right and left) goal box in turn, but scopolamine-treated animals tend to enter the same goal box repeatedly. The effect of the test compounds was expressed as % improvement (complete improvement to the alternation level of non-dosed mice=100%).

For assay [4], the system named is cycloheximide-induced amnesia of passive avoidance response. The experiment in a line: Improving effect on cycloheximide-induced amnesia of passive avoidance response. The following applies: cycloheximide 60 mg/kg s.c., retention trial at 24 hours, non-dosed animals=100%. From the text: Improving effect on cycloheximide-induced amnesia of passive avoidance response:
Anti-amnesic effect of the test compounds was examined using mice given cycloheximide which is a known amnesia-inducing agent.
A group of 15-20 male mice (Std-ddY strain, 27-33 g) was subjected to training and retention trials for a passive avoidance task in a step-down apparatus (30×30×50 cm) with a grid floor and a wooden platform (4×4×4 cm) in a center of the floor. In the training trial, each mouse was first placed on the platform, and when the mouse stepped down on the grid floor, an electric shock (1 Hz, 0.5 sec, 60 VDC) was delivered to the feet for 15 seconds. Immediately after the training trial, cycloheximide (60 mg/kg, s.c.) and a test compound (i.p.) were administered. The retention trial was carried out 24 hours thereafter, and the time from placing again each mouse on the platform until stepping down on the grid floor (step-down latency) was measured. The step-down latency in the retention trial was markedly shortened by treatment of cycloheximide (amnesia). The effect of test compounds was assessed by % improvement (complete improvement to the latency level of non-dosed animals=100%).

The test system of assay [5] is reserpine-induced hypothermia. Briefly: Anti-reserpine effect (reserpine-induced hypothermia). The following applies: 100 mg/kg orally; reserpine 5 mg/kg s.c.; rectal temperature at 4 hours; complete inhibition=100%. The procedure:
A group of 5 male mice (Std-ddY strain, 22-25 g) was used for examining the antagonistic effect of the test compounds on reserpine-induced hypothermia, which is known as a screening method for the antidepressant drug.
Reserpine (5 mg/kg) was subcutaneously administered to the mice and further a test compound was orally administered thereto. Four hours after the administration, rectal temperature of the mice was measured. The effect of the test compounds was estimated by % inhibition (complete inhibition to the hypothermia by reserpine in non-dosed animals=100%).

Consider `CC1CCc2nc(N3CCN(CCO)CC3)nc(-c3ccc(F)cc3)c2C1` (stereo not shown) [Ex. 43], for which, in assay [1], the inhibition in vivo at 30 mg/kg came out at 64.2%.
For `Fc1ccc(-c2nc(N3CCN(Cc4ccccc4)CC3)nc3c2CCCCC3)cc1` [Ex. 38], the inhibition in vivo at 30 mg/kg in assay [1] was found to be 81.6%.
Regarding `OCCN1CCN(c2nc3c(c(-c4ccc(F)cc4)n2)CCC3)CC1` [Ex. 6], the inhibition in vivo at 30 mg/kg in assay [1] is 64.5%. Besides, in assay [2], the response vs control in vivo at 100 mg/kg came to 119%.
On to `CN1CCN(c2nc3c(c(-c4cccc(F)c4)n2)CCC3)CC1` [Ex. 21], for which the inhibition in vivo at 30 mg/kg in assay [1] came to 70.5%.
On the same count and under the same terms, with `c1ccc(CN2CCN(c3nc4c(c(-c5ccccc5)n3)CCC4)CC2)cc1` [Ex. 18] the figure was 54.4%; with `CC1CCc2nc(N3CCNCC3)nc(-c3ccc(F)cc3)c2C1` (stereo not shown) [Ex. 40], 64.5%.
As to `c1ccc(-c2nc(N3CCNCC3)nc3c2CCC3)cc1` [Ex. 3, 2-(1-Piperazinyl)-4-phenyl-6,7-dihydro-5H-cyclopentapyrimidine], the inhibition in vivo at 3 mg/kg in assay [1] was 68%. The “Improvement of scopolamine-induced deficit of spontaneous alternation” value in assay [3] (2.0 mg/kg i.p.) amounted to 45.8%. The “Improvement of cycloheximide-induced amnesia (step-down latency)” value in assay [4] (0.5 mg/kg i.p.) stood at 34.4%; in assay [4] (10.0 mg/kg i.p.), 52.1%.
In the case of `CCN1CCN(c2nc3c(c(-c4ccc(F)cc4)n2)CCCC3)CC1` [Ex. 29], in assay [1], the inhibition in vivo at 30 mg/kg was determined as 59.1%. In addition, in assay [2], the response vs control in vivo at 100 mg/kg was found to be 149%.
As to `CCN1CCN(c2nc3c(c(-c4ccccc4)n2)CCCCC3)CC1` [Ex. 16], the inhibition in vivo at 30 mg/kg in assay [1] came out at 54.2%.
Same read-out and setting: in the case of `CCN1CCN(c2nc3c(c(-c4ccc(OC)cc4)n2)CCC3)CC1` [Ex. 24] it was 72.5%.
For the compound `Fc1ccc(-c2nc(N3CCNCC3)nc3c2CCCC3)cc1` [Ex. 14, 2-(1-piperazinyl)-4-(4-fluoro-phenyl)-5,6,7,8-tetrahydroquinazoline], in assay [1], the inhibition in vivo at 3 mg/kg is 55.2%. Also, in assay [5], the “Inhibitory ratio (% inhibition of reserpine-induced hypothermia)” value amounted to 100%. In assay [3] (1.0 mg/kg i.p.), the “Improvement of scopolamine-induced deficit of spontaneous alternation” value is listed as 40.7%. The “Improvement of cycloheximide-induced amnesia (step-down latency)” value in assay [4] (2.0 mg/kg i.p.) turned out to be 52.5%. Further, in assay [2], the response vs control in vivo at 100 mg/kg was 154%.
As for `CCN1CCN(c2nc3c(c(-c4ccc(F)cc4)n2)CCCCC3)CC1` [Ex. 8], the inhibition in vivo at 10 mg/kg in assay [1] turned out to be 80%.
Turning to `CCN1CCN(c2nc3c(c(-c4ccccc4)n2)CCCCCC3)CC1` [Ex. 17], the inhibition in vivo at 30 mg/kg in assay [1] is 72.5%.
As to `OCCN1CCN(c2nc3c(c(-c4ccc(Cl)cc4)n2)CCCC3)CC1` [Ex. 34], the inhibition in vivo at 30 mg/kg in assay [1] came out at 50.2%.
Still for that read-out and setting: with `Fc1ccc(-c2nc(N3CCN(c4ccccc4)CC3)nc3c2CCC3)cc1` [Ex. 20] the figure was 35.2%.
Take `CN1CCN(c2nc3c(c(-c4ccc(F)cc4)n2)CCC3)CC1` [Ex. 4]: in assay [1], the inhibition in vivo at 10 mg/kg stood at 66%. Moreover, the response vs control in vivo at 100 mg/kg in assay [2] came out at 122%.
As for `Fc1ccc(-c2nc(N3CCN(c4ccccn4)CC3)nc3c2CCC3)cc1` [Ex. 39], in assay [1], the inhibition in vivo at 30 mg/kg was found to be 55.6%.
Regarding `c1ccc(CN2CCN(c3nc4c(c(-c5ccccc5)n3)CCCCC4)CC2)cc1` [Ex. 37], the inhibition in vivo at 30 mg/kg in assay [1] came out at 62.9%.
On to `CN1CCN(c2nc3c(c(-c4ccccc4)n2)CCCC3)CC1` [Ex. 25], for which, in assay [1], the inhibition in vivo at 10 mg/kg came out at 67.2%. In assay [5], the “Inhibitory ratio (% inhibition of reserpine-induced hypothermia)” value turned out to be 63%. Moreover, the response vs control in vivo at 100 mg/kg in assay [2] was 142%.
For the compound `Fc1ccc(-c2nc(N3CCN(C4CCCC4)CC3)nc3c2CCC3)cc1` [Ex. 12], the inhibition in vivo at 30 mg/kg in assay [1] came to 80.9%.
Same read-out and setting: with `CCCN1CCN(c2nc3c(c(-c4ccc(F)cc4)n2)CCC3)CC1` [Ex. 13, 2-(4-n-propyl-1-piperazinyl)-4-(4-fluorophenyl)-6,7-dihydro-5H-cyclopentapyrimidine] the figure was 97.6%.
As for `Fc1ccc(-c2nc(N3CCN(Cc4ccccc4)CC3)nc3c2CCC3)cc1` [Ex. 19], the inhibition in vivo at 3 mg/kg in assay [1] worked out at 64.4%.
For `CCN1CCN(c2nc3c(c(-c4ccccc4)n2)CCCC3)CC1` [Ex. 26], the inhibition in vivo at 30 mg/kg in assay [1] is 59.6%. In assay [5], the “Inhibitory ratio (% inhibition of reserpine-induced hypothermia)” value is on record as 100%.
For the compound `CCN1CCN(c2nc3c(c(-c4ccc(Cl)cc4)n2)CCCC3)CC1` [Ex. 33], in assay [1], the inhibition in vivo at 30 mg/kg was found to be 42.3%.
Regarding `O=C(c1ccco1)N1CCN(c2nc3c(c(-c4ccc(F)cc4)n2)CCC3)CC1` [Ex. 45, 2-[4-(2-furoyl)-1-piperazinyl]-4-(4-fluorophenyl)-6,7-dihydro-5H-cyclopentapyrimidine], the inhibition in vivo at 30 mg/kg in assay [1] turned out to be 60.4%.
Consider `O=C(CCCN1CCN(c2nc3c(c(-c4ccc(F)cc4)n2)CCC3)CC1)c1ccc(F)cc1` [Ex. 46, 2-[4-[3-(4-fluorobenzoyl)propyl]-1-piperazinyl]-4-(4-fluorophenyl)-6,7-dihydro-5H-cyclopentapyrimidine], for which, in assay [1], the inhibition in vivo at 30 mg/kg was found to be 100%.
Turning to `Fc1ccc(-c2nc(N3CCN(Cc4ccccc4)CC3)nc3c2CCCC3)cc1` [Ex. 31], in assay [1], the inhibition in vivo at 10 mg/kg amounted to 61.1%.
Regarding `COc1ccc(-c2nc(N3CCN(C)CC3)nc3c2CCC3)cc1` [Ex. 23], the inhibition in vivo at 30 mg/kg in assay [1] is 52.4%.
Take `CCN1CCN(c2nc3c(c(-c4ccc(F)cc4)n2)CCC3)CC1` [Ex. 5]: the inhibition in vivo at 30 mg/kg in assay [1] was 81.4%. Also, the response vs control in vivo at 100 mg/kg in assay [2] is 161%.
For `CCN1CCN(c2nc3c(c(-c4ccc(F)cc4)n2)CC(C)CC3)CC1` (stereo not shown) [Ex. 42], in assay [1], the inhibition in vivo at 30 mg/kg turned out to be 71%.
Take `CC1CCc2nc(N3CCN(C)CC3)nc(-c3ccc(F)cc3)c2C1` (stereo not shown) [Ex. 41]: in assay [1], the inhibition in vivo at 30 mg/kg stood at 60.8%.
Turning to `CN1CCN(c2nc3c(c(-c4ccc(Cl)cc4)n2)CCCC3)CC1` [Ex. 32], the inhibition in vivo at 30 mg/kg in assay [1] is 62.6%.
On to `OCCN1CCN(c2nc3c(c(-c4ccc(F)cc4)n2)CCCC3)CC1` [Ex. 30], for which, in assay [1], the inhibition in vivo at 30 mg/kg came out at 75.7%. Besides, the “Inhibitory ratio (% inhibition of reserpine-induced hypothermia)” value in assay [5] is listed as 67%. Further, the response vs control in vivo at 100 mg/kg in assay [2] was found to be 137%.
In the case of `OCCN1CCN(c2nc3c(c(-c4ccccc4)n2)CCCC3)CC1` [Ex. 27], in assay [1], the inhibition in vivo at 30 mg/kg came out at 42%. For the same compound, in assay [5], the “Inhibitory ratio (% inhibition of reserpine-induced hypothermia)” value was 46%. The response vs control in vivo at 100 mg/kg in assay [2] was found to be 131%.
